Assay results from article PMC12386283, “Elucidating the Complex Structural and Molecular Mechanisms Driving P-Glycoprotein-Mediated Transport of Cardiac Glycosides” (International Journal of Molecular Sciences, 2025).

Columns and labels:
[1] = target: T1, wild-type mouse Pgp (MDR3) (Mus musculus, UniProt P21447)
Experimental: (§1) Overexpression of wild-type mouse Pgp (MDR3) was achieved by using genetically engineered strains of Pichia pastoris with a 6X histidine tag. The cells were cultured in glycerol media, and methanol was used to induce the overexpression of Pgp at the Bioexpression and Fermentation Facility (BFF), University of Georgia, Athens, GA, USA. A repeated cycle of freezing using liquid nitrogen, blending, and thawing was used to lyse the Pgp-expressing P. pastoris cells. The protein was purified using affinity chromatography with nickel-nitrilotriacetic acid (Ni-NTA) resin (Thermo Fisher Scientific, Waltham, MA, USA). DDM was used to solubilize the protein, and the solution was concentrated using Amicon Ultra-15 100 kDa cut-off filters (EMD Millipore, Billerica, MA, USA). The concentration of purified protein was measured at 280 nm using a calculated extinction coefficient of 1.28 per mg mL^−1 on a Nanodrop (DeNovix, Wilmington, DE, USA). […] The purified DDM-solubilized Pgp was aliquoted and stored at −80 °C for future analysis.
(§2) Approximately 40 µL of DDM-solubilized Pgp was dialyzed for two hours against HEPES buffer (20 mM HEPES, 100 mM NaCl, 5 mM MgCl2, 2 mM DTT, pH 7.4) to remove any remnants of the detergent, DDM. The dialyzed protein was mixed with 4 mg mL^−1 of the extruded liposomes and incubated on ice for at least one hour to allow Pgp to integrate into the liposomes. To remove any additional detergent and further facilitate Pgp integration into the liposome, the solution was dialyzed for a second time for two hours in HEPES buffer to form proteoliposomes, and the concentration of Pgp reconstituted in liposomes was determined using the Bio-Rad DC Protein assay. Finally, the solution was aliquoted and stored at −80 °C for future use.
Acrylamide, an aqueous collisional quencher, can be used to determine the changes in conformation upon Pgp-drug interaction. The principle of this technique is that as the drug interacts with the protein, the conformation of the accessible tryptophan residues in the protein also changes, resulting in a shift in fluorescence intensity. For this experiment, to measure the fluorescence of Pgp reconstituted in liposomes, in the presence (250 µM) or absence of drug(s), the excitation and emission wavelengths used were 295 nm and 330 nm, respectively. The proteoliposomes were diluted to a final concentration of 1 µM in Chifflet buffer (pH 7.4) containing 2 mM DTT, and it was titrated against an increasing concentration of acrylamide. A concentration of 11 µM N-acetyl-L-tryptophanamide (NATA), an analog of tryptophan, was used as a positive control to determine non-specific quenching. A saturated concentration of AMPPNP (3.2 mM), a non-hydrolysable form of ATP, was used to generate an outward-open conformation of Pgp. All the experiments for acrylamide quenching were performed at 21 °C. To correct the fluorescence intensities for background, dilution, and inner filter effects, […] was used. A Stern–Volmer plot was constructed with F0(corrected)/F(corrected) versus acrylamide concentration. The slope of the curve determined the degree of quenching, and it was related to the Stern–Volmer constant (Ksv) by Equation (4), as follows:(4) Focorrected/Fcorrected=1+KsvQ where F0(corrected)/F(corrected) = Stern–Volmer plot; Ksv = Stern–Volmer constant; and [Q] = acrylamide concentration.

[2] = target: T1, wild-type mouse Pgp (MDR3); assay: biochemical
Experimental: as §1, §2
The intrinsic tryptophan residues in the protein can be selectively excited and emitted at 295 nm and 330 nm wavelengths, respectively. The binding of the drug to the protein can alter the spatial arrangement encountered by the tryptophan residue(s) and thereby regulate the fluorescence intensity of the protein [52]. […] Proteoliposomes diluted to 1 µM in Chifflet buffer containing 2 mM DTT were titrated against varying concentrations of drugs. The intrinsic protein fluorescence was measured at 330 nm upon excitation at 295 nm using an Olis DM 45 spectrophotometer (Olis Corporation, Bogart, GA, USA). To nullify the effect of Rayleigh bands on the observed spectra, a 10 nm band-pass filter was inserted on the excitation and emission paths of the spectrophotometer. The drug-induced quenching of intrinsic Pgp fluorescence was corrected (Fcorrected) for factors such as dilution, background fluorescence, and inner filter effects using the equation mentioned below (Equation (2)).(2) Fcorrected=F−B10^εexbex+εembemQ/2 where Fcorrected = Drug-induced quenching of intrinsic Pgp fluorescence; F = Emitted intrinsic Pgp fluorescence at 330 nm; [Q] = Concentration of drug; εex and εem = Excitation and emission extinction coefficients, respectively; bex and bem = Path lengths of excitation (0.4 mm) and emission (10 mm) wavelengths, respectively; and B = Background fluorescence measured from drug and solvent.
The resulting quenching curves were fit using a modified Stern-Volmer equation (Equation (3)), as follows:(3) Fcorrected=FOcorrected/1+KsvQ+Funquenched where Fcorrected = The corrected fluorescence; F0(corrected) = Fluorescence recorded in the absence of drug; [Q] = Concentration of drug; Ksv = Stern–Volmer constant; and F(unquenched) = unquenched fluorescence.

[3] = target: T1, wild-type mouse Pgp (MDR3); conditions: mouse, not told, pH 7.4
Source text: The STDD NMR technique is a robust method used to characterize the interaction between a drug and receptor protein [36, 86]. This technique utilizes a saturated low-strength radio frequency (RF) to selectively excite the receptor protein. […] Due to the localization of Pgp, most of its substrates are lipophilic, resulting in a probable non-specific interaction between its substrates and liposomes in the observed STD NMR spectrum. Therefore, STD NMR of liposomes in the presence of drugs was performed. The resulting spectrum was subtracted from the ^1H STD NMR spectrum obtained from the drug in the presence of proteoliposome (Pgp reconstituted into liposome) to achieve a saturation transfer double-difference (STDD) NMR spectrum, which nullified the STD observations of the drugs in the presence of liposomes.
This technique was performed as previously described. […] The NMR tubes with the sample were centrifuged at 3000× g for 5 min. To suppress the background signals caused by water, a tailored gradient pulse sequence known as water suppression by gradient-tailored excitation (WATERGATE) was also included. A train of 50 ms Gaussian-shaped selective pulses was used to selectively excite and saturate Pgp for two seconds, and a relaxation delay of five seconds was also used. The STD NMR spectra for both the control and the samples were obtained through phase cycling, where the Pgp irradiation resonance was alternated between 1.5 ppm and 42 ppm on and off resonance, respectively, for 512 scans, creating the ^1H NMR spectrum.
For this experiment, the NMR studies were performed on a Bruker Avance NEO 800 MHz NMR spectrometer with a 1.7 mm TCI H{CN} probe at 25 °C. The STD NMR data generated were analyzed using iNMR software (Nucleomatic, Molfetta, Italy), Igor Pro 6.2, and Mnova 14.2.0 (Mastrelab Research S.L., Santiago de Compostela, Spain).

T1 sequence (P21447 whole entry): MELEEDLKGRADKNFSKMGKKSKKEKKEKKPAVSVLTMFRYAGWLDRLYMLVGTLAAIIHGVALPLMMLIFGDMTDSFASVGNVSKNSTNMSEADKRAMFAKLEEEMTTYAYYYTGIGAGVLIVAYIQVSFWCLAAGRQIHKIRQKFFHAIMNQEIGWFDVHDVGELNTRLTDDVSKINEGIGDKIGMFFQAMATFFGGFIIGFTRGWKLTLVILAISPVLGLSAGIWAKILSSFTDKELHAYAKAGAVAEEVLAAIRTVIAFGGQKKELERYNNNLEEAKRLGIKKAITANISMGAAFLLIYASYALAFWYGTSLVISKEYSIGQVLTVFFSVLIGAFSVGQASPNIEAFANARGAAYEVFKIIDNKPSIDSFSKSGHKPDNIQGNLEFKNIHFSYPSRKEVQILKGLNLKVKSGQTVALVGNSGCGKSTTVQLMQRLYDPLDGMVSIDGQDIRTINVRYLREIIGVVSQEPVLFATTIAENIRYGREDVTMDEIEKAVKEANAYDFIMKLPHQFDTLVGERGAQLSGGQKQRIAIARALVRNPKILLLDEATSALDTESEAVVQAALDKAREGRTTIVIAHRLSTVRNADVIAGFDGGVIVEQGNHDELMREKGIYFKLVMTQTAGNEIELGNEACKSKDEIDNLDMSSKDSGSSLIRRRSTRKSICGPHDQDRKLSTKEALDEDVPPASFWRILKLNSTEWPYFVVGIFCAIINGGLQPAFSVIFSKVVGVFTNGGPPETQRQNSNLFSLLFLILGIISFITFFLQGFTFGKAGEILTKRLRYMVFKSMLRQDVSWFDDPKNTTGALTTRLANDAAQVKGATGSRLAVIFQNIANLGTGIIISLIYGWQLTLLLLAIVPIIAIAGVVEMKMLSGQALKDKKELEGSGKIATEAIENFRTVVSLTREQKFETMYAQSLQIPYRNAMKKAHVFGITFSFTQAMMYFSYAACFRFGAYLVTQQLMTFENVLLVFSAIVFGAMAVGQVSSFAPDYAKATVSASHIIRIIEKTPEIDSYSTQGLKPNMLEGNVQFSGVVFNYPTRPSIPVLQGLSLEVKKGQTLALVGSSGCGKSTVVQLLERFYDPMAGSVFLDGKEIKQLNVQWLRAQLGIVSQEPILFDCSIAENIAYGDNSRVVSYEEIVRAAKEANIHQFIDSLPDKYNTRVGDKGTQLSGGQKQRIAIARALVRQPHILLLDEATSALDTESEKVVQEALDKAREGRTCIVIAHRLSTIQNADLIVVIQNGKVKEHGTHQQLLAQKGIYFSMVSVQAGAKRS

Nc1ncnc2c1ncn2[C@@H]1O[C@H](COP(=O)([O-])OP(=O)([O-])NP(=O)([O-])[O-])[C@@H](O)[C@H]1O.[Li+].[Li+].[Li+].[Li+] [AMPPNP, Adenosine 5′-(β,γ-imido) triphosphate lithium salt]
Ksv of Pgp (acrylamide quenching) in the presence of AMPPNP alone [1]: 1.6 ± 0.01 M⁻¹

C[C@H]1O[C@@H](O[C@H]2[C@@H](O)C[C@H](O[C@H]3[C@@H](O)C[C@H](O[C@H]4CC[C@@]5(C)[C@H](CC[C@@H]6[C@@H]5CC[C@]5(C)[C@@H](C7=CC(=O)OC7)CC[C@]65O)C4)O[C@@H]3C)O[C@@H]2C)C[C@H](O)[C@@H]1O [Digitoxin]
Kd [2]: 16.7 ± 4.44 µM | Interaction (Region/Group) Pgp (STDD-NMR Data) [3]: Protons on C3,C17, C18, C19 of steroid; C22 of lactone; C3,C5,C6 of sugar | Pgp conformation upon drug binding in the absence of a nucleotide [1]: intermediate
